The source of these data is article PMC8877822, “Interrogation of the Structure–Activity Relationship of a Lipophilic Nitroaromatic Prodrug Series Designed for Cancer Gene Therapy Applications” (Pharmaceuticals, 2022).

Broadly, the logD is the decadic logarithm of the distribution of all forms, ionised or not, between an organic phase and buffer at a given pH. A high value points to a more lipophilic compound. In general, IC50 refers to the point on the concentration scale where inhibition reaches its midpoint. A word on the Km: it is the concentration of substrate that gives half-maximal velocity. As usually defined, the kcat is the maximal rate divided by the concentration of active sites. In general, melting point refers to the temperature, or range, at which the solid turns liquid.

Data set [1] is described as follows: LogD7.4 by low-volume octanol/PBS shake-flask method. It counts as physicochemical. The note with it: n-octanol/PBS; octanol-water partition coefficient, shake-flask method at pH 7.4. The protocol:
Distribution ratios (LogD7.4) were determined by a low-volume octanol/PBS shake-flask method. Briefly, saturated solutions of octanol and PBS were prepared by mixing equal volumes of n-octanol and PBS (pH 7.4) before being left for three days. The octanol and PBS phases were then carefully separated and left to stand for at least 24 h. Stock solutions (0.1–0.5 mM) of each compound were prepared in octanol saturated with PBS. The stock solutions were diluted with octanol saturated with PBS containing and inter-assay control (acridone) to a final compound concentration of 50 μM. Aliquots (450 μL) were then taken in triplicate, and 450 μL of PBS saturated with octanol was added into amber tubes. The tubes were then sealed in parafilm and rotated for 90 min at 30 rpm to equilibrate. After centrifugation (15,000× g, 5 min, 20°C) the octanol and PBS phases were separated into different tubes and the octanol phase diluted with methanol (1:5 v/v). Both phases were analyzed by HPLC (diode-array detector at 364 ± 10 nm) by injecting 50 μL of the PBS phase and 15 μL of the diluted octanol phase. The results were then expressed as the log ratio of the peak areas obtained from the octanol and PBS phases corrected for dilution and injection volume.

Data set [2] deals with HCT116 cells expressing E. coli NfsA nitroreductase (NfsA_Ec). Briefly: Low cell density anti-proliferative (IC50) assay, HCT116 NfsA_Ec vs HCT116 WT. In kind it is cell-based. The settings on record: aerobic, five days regrowth; for IC50: Escherichia coli, HCT-116, four hour drug exposure. The method, then: (§1) Next, we evaluated the compounds for activity with the major nitroreductase from E. coli, NfsA (NfsA_Ec), or the human aldo-keto reductase AKR1C3, using a low cell density anti-proliferative (IC50) assay (Figure 2). The sensitivity of HCT116 wild-type (WT) cells and HCT116 cells over-expressing either NfsA_Ec or AKR1C3 was examined under aerobic conditions.
(§2) The anti-proliferative IC50 was determined as the concentration of prodrug required for 50% inhibition of cell growth, following drug exposure for four hours, then five days regrowth in the absence of drug. Assays were performed under oxic or anoxic conditions as described previously, the latter by using a 5% H2/palladium catalyst scrubbed Bactron anaerobic chamber (Sheldon Manufacturing, Cornelius, OR, USA) to achieve severe anoxia (<10 ppm O2 gas phase) during prodrug exposure.
Figure 2 In vitro anti-proliferative activity of the novel lipophilic analogue series in HCT116 cells expressing AKR1C3 and E. coli NfsA (NfsA_Ec). IC50 values were determined as the concentration of drug required to inhibit cell growth by 50% of untreated controls following four hour drug exposure, with washing and regrowth for five days. Respective IC50 ratios (WT:AKR1C3 or WT:NfsA_Ec) are indicated above the bars for each compound. TEXT PRINTED IN THE PICTURE: PR-104A: HCT116 AKR1C3: 84; HCT116 NfsA_Ec: 2680 | 1: HCT116 AKR1C3: 1.8; HCT116 NfsA_Ec: 242 | 2: HCT116 AKR1C3: 1.6; HCT116 NfsA_Ec: 1431 | 3: HCT116 AKR1C3: 2.3; HCT116 NfsA_Ec: 913 | 4: HCT116 AKR1C3: 3.3; HCT116 NfsA_Ec: 594 | 5: HCT116 AKR1C3: 3.3; HCT116 NfsA_Ec: 152 | 6: HCT116 AKR1C3: 2.4; HCT116 NfsA_Ec: 741 | 7: HCT116 AKR1C3: 3.2; HCT116 NfsA_Ec: 174 | 8: HCT116 AKR1C3: 4.9; HCT116 NfsA_Ec: 81 | 9: HCT116 AKR1C3: 3.4; HCT116 NfsA_Ec: 147 DOUBTS OF THE COPYIST ABOUT THIS PICTURE: All values: the picture prints no measure or unit for the grey numbers above the blue and red bars. […] Each is given only with the cell line of the bar it stands over, as named in the picture's key.

The test system of data set [3] is 97% HCT116 WT/3% HCT116 NfsA_Ec MCLs. Description: 3D multicellular layer (MCL) bystander assay, 97% HCT116 WT/3% HCT116 NfsA_Ec. In kind it is cell-based. The settings on record: 10 µM prodrug, five hours. The text has this: We then examined our compounds in a high cell density, 3D multi-cellular layer (MCL) assay in order to determine tissue penetration capacity of the active metabolite(s) and the potential for an efficient bystander effect. Mixed MCLs consisting of a small percentage HCT116 NfsA_Ec cells (3%) in the presence of HCT116 WT cells (97%) were used as a robust screen for efficient bystander cell kill. Here, active cytotoxic metabolites can diffuse out of the minority NfsA_Ec ‘prodrug-activating’ cell population into the WT ‘target’ population, causing death of cells that would not normally be sensitive to that concentration of prodrug.
(§3) Multicellular layers (MCLs) were grown, and bystander effect assays were performed as previously reported.
Figure 3 Lipophilic structure–activity relationship for NfsA_Ec in three dimensions. (A) Plating efficiency in 100% HCT116 WT and 97% HCT116 WT/3% HCT116 NfsA_Ec MCLs exposed to 10 µM prodrug for five hours before dissociation and plating to determine clonogenic survival. (B) Correlation between Log cell kill and LogD7.4. R = 0.63, R^2 = 0.40. Log cell kill = Log CS (control)–Log CS (treated), where CS is the number of clonogenic survivors per MCL.

The subject of data set [4] is 100% HCT116 AKR1C3 MCLs. Briefly: 3D multicellular layer (MCL) assay, 100% HCT116 AKR1C3. It counts as cell-based, human. The settings on record: 10 µM prodrug, five hours. The protocol:
Similar to the 3D NfsA_Ec screen, increased lipophilicity also tracked with increased LCK in 100% AKR1C3-expressing MCLs (R = 0.78, R^2 = 0.61). […] These three lead compounds were taken forward into in vivo studies.
as §3
Figure 4 Lipophilic structure–activity relationship for AKR1C3 in three dimensions. (A) Plating efficiency in 100% HCT116 WT and 100% HCT116 AKR1C3 MCLs exposed to 10 µM prodrug for five hours before dissociation and plating to determine clonogenic survival. (B) Correlation between Log cell kill and LogD7.4. R = 0.78, R^2 = 0.61. Log cell kill = Log CS (control)–Log CS (treated), where CS is the number of clonogenic survivors per MCL.

In data set [5] the test system is H1299 WT cells. Description: Anti-proliferative IC50 assay, H1299 WT cells. In kind it is cell-based. The note with it: Homo sapiens, NCI-H1299, 4 hour drug exposure, regrowth for five days. The protocol: as §2
(§4) Supplementary Table S2. In vitro anti-proliferative activity of the three lead prodrug compounds in H1299 cells expressing E. coli NfsA. IC50 values were determined as the concentration of drug required to inhibit cell growth by 50% of untreated controls following 4 hour drug exposure, with washing and regrowth for five days.
(§5) Compound WT NfsA_Ec Ratio

Data set [6] has as its system H1299 cells expressing E. coli NfsA. Description: Anti-proliferative IC50 assay, H1299 cells expressing E. coli NfsA. In kind it is cell-based. The note with it: for IC50: Escherichia coli, NCI-H1299, H1299 NfsA_Ec, 4 hour drug exposure, regrowth for five days; for WT:NfsA_Ec IC50 ratio: H1299 WT vs H1299 NfsA_Ec. The method, then: as §2, §4, §5
The subject of data set [7] is HCT116 cells over-expressing AKR1C3. Description: Low cell density anti-proliferative (IC50) assay, HCT116 AKR1C3 vs HCT116 WT. It counts as cell-based, human. The note with it: HCT116 WT vs HCT116 AKR1C3, aerobic, four hour exposure, five days regrowth. The protocol: as §1, §2
Figure 2 In vitro anti-proliferative activity of the novel lipophilic analogue series in HCT116 cells expressing AKR1C3 and E. coli NfsA (NfsA_Ec). IC50 values were determined as the concentration of drug required to inhibit cell growth by 50% of untreated controls following four hour drug exposure, with washing and regrowth for five days. Respective IC50 ratios (WT:AKR1C3 or WT:NfsA_Ec) are indicated above the bars for each compound. […]

Data set [8] deals with T1, purified His6-tagged NfsA_Ec (Escherichia coli, UniProt P17117).
T1 construct: His6; made in house
T1 sequence (P17117 1-240): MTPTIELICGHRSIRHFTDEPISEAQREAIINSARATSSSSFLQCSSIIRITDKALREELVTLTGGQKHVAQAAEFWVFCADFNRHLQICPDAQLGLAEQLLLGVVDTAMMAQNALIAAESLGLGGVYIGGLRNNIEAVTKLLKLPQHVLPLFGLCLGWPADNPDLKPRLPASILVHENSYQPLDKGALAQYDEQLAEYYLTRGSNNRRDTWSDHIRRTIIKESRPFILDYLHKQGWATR
On the set-up: method as in earlier work. The note with it: apparent, 250 µM NADPH; cited from earlier work.

On the set-up of data set [9]: method as in PMID 34959631. The note with it: mice, PR-104 at 388 µmol/kg (human equivalent dose); cited from earlier work.

Where only a bound is given, the exact number is not on record here.

As for `CCCN(CCO)C(=O)c1cc(N(CCBr)CCBr)c(S(C)(=O)=O)cc1[N+](=O)[O-]` [Compound 4], the logD at 90 min in [1] is 2.1. The compound also returned a concentration for half-maximal inhibition (IC50) in data set [2] of 170 nM. Also, the “Log cell kill (LCK)” value in data set [3] was found to be 3.06.

In turn, `CS(=O)(=O)c1cc([N+](=O)[O-])c(C(=O)NCCO)cc1N(CCBr)CCBr` [Compound 1, 5-(Bis(2-bromoethyl)amino)-N-(2-hydroxyethyl)-4-(methylsulfonyl)-2-nitrobenzamide] returned a logD at 90 min in data set [1] of 1. Moreover, the “Log cell kill (LCK)” value in [4] is on record as not above 0.11. The compound further yielded an IC50 in [5] of 166000 ± 26000 nM. For the same compound, in data set [6], the IC50 came to 1180 ± 40 nM and the “WT:NfsA_Ec IC50 ratio” value was 141 fold.

On to `CS(=O)(=O)OCCN(CCBr)c1c(C(=O)NCCO)cc([N+](=O)[O-])cc1[N+](=O)[O-]` [PR-104A, reference compound], for which the half-maximal inhibitory concentration (IC50) in data set [2] turned out to be 30 nM; in data set [5] it was 131000 ± 9900 nM; in [6] it was 46 ± 3 nM. In addition, the “WT:NfsA_Ec IC50 ratio” value is reported as 2680 fold in [2] (HCT116 WT vs HCT116 NfsA_Ec, four hour exposure) and 2848 fold in data set [6]. For the same compound, the “WT:AKR1C3 IC50 ratio” value in [7] is recorded as 84 fold. The Km in [8] was 100 ± 11 µM. For the same compound, the catalytic constant (kcat) in data set [8] is 12 ± 1.4 s⁻¹. Also, the “Plasma AUCfree of PR-104A” value in data set [9] is recorded as 38 µM-h.

In data set [1], `CCCS(=O)(=O)c1cc([N+](=O)[O-])c(C(=O)N(C)CCO)cc1N(CCBr)CCBr` [Compound 9] came in with a logD at 90 min of 2.1. In data set [2], this compound returned an IC50 of 1000 nM. Moreover, the “Log cell kill (LCK)” value in [3] is listed as 1.6.

Consider `CN(CCO)C(=O)c1cc(N(CCBr)CCBr)c(S(C)(=O)=O)cc1[N+](=O)[O-]` [Compound 2, 5-(Bis(2-bromoethyl)amino)-N-(2-hydroxyethyl)-N-methyl-4-(methylsulfonyl)-2-nitrobenzamide], for which the melting point is 138 to 140 °C. Also, in data set [1], the logD at 90 min was 1.2. For the same compound, the “Log cell kill (LCK)” value in data set [4] is listed as not above 0.11. The midpoint of inhibition in [5], the IC50, lay at 175000 ± 3500 nM. In addition, in data set [6], the midpoint of inhibition, the IC50, lay at 170 ± 30 nM and the “WT:NfsA_Ec IC50 ratio” value was determined as 1029 fold.
